Results: paper PMC5218480 (PLoS ONE, 2017)

Test system: MV-4-11 cells
Test: Gene expression microarray analysis (Affymetrix PrimeView) and GSEA
Type: cell-based, human
Parameters: RFU PODN (11730768_x_at) / Fold change /veh PODN (11730768_x_at) / RFU LINC00158 (11744669_a_at) / Fold change /veh LINC00158 (11744669_a_at) / RFU DUSP10 (11751237_a_at) / Fold change /veh DUSP10 (11751237_a_at) / RFU ID3 (11757404_x_at) / Fold change /veh ID3 (11757404_x_at) / RFU PLEKHG5 (11737974_s_at) / Fold change /veh PLEKHG5 (11737974_s_at) / RFU LRRC4B (11730491_at) / Fold change /veh LRRC4B (11730491_at) / RFU GIMAP4 (11747438_a_at) / Fold change /veh GIMAP4 (11747438_a_at) / RFU KRT8 (11758183_x_at) / Fold change /veh KRT8 (11758183_x_at) / RFU CNN1 (11734310_a_at) / Fold change /veh CNN1 (11734310_a_at) / RFU VPS37D (11726825_at) / Fold change /veh VPS37D (11726825_at) / RFU C10orf10 (11716522_x_at) / Fold change /veh C10orf10 (11716522_x_at) / RFU KIR2DL2 /// KIR2DL4 /// KIR2DL5A /// KIR2DL5B /// KIR2DS1 /// KIR2DS2 /// KIR2DS3 /// KIR2DS4 /// KIR3DL3 /// KIR3DL3 /// KIR3DS1 (11738374_at) / Fold change /veh KIR2DL2 /// KIR2DL4 /// KIR2DL5A /// KIR2DL5B /// KIR2DS1 /// KIR2DS2 /// KIR2DS3 /// KIR2DS4 /// KIR3DL3 /// KIR3DL3 /// KIR3DS1 (11738374_at) / RFU C1QL1 (11718748_at) / Fold change /veh C1QL1 (11718748_at) / RFU TMPRSS4 (11747572_a_at) / Fold change /veh TMPRSS4 (11747572_a_at) / RFU HAMP (11756126_x_at) / Fold change /veh HAMP (11756126_x_at) / RFU RNFT2 (11725882_a_at) / Fold change /veh RNFT2 (11725882_a_at) / RFU NR4A2 (11747474_a_at) / Fold change /veh NR4A2 (11747474_a_at) / RFU ABCC12 (11746883_a_at) / Fold change /veh ABCC12 (11746883_a_at) / RFU TMEM136 (11760407_x_at) / Fold change /veh TMEM136 (11760407_x_at) / RFU CLDN22 /// WWC2 (11732394_at) / Fold change /veh CLDN22 /// WWC2 (11732394_at) / RFU HLA-DPB1 (11760878_x_at) / Fold change /veh HLA-DPB1 (11760878_x_at) / RFU SPINT1 (11716480_a_at) / Fold change /veh SPINT1 (11716480_a_at) / RFU GAP43 (11754022_s_at) / Fold change /veh GAP43 (11754022_s_at) / RFU A4GNT (11735810_at) / Fold change /veh A4GNT (11735810_at) / RFU PRB3 (11715151_x_at) / Fold change /veh PRB3 (11715151_x_at) / RFU TUBB4B (11761932_at) / Fold change /veh TUBB4B (11761932_at) / RFU CAPN14 (11732068_a_at) / Fold change /veh CAPN14 (11732068_a_at) / RFU TMCC2 (11721928_a_at) / Fold change /veh TMCC2 (11721928_a_at) / RFU IRGQ (11745062_a_at) / Fold change /veh IRGQ (11745062_a_at) / RFU FAM174B (11720279_a_at) / Fold change /veh FAM174B (11720279_a_at) / RFU TMPRSS4 (11748680_a_at) / Fold change /veh TMPRSS4 (11748680_a_at) / RFU FAM212B (11763350_a_at) / Fold change /veh FAM212B (11763350_a_at) / RFU PLEKHG5 (11743358_a_at) / Fold change /veh PLEKHG5 (11743358_a_at) / RFU ZSCAN30 (11745921_a_at) / Fold change /veh ZSCAN30 (11745921_a_at) / RFU CMKLR1 (11741424_a_at) / Fold change /veh CMKLR1 (11741424_a_at) / RFU LOC101060620 /// MAPK8IP1 (11723275_at) / Fold change /veh LOC101060620 /// MAPK8IP1 (11723275_at) / RFU SPTSSB (11747773_x_at) / Fold change /veh SPTSSB (11747773_x_at) / RFU PRSS12 (11739890_at) / Fold change /veh PRSS12 (11739890_at) / RFU BIN1 (11741810_x_at) / Fold change /veh BIN1 (11741810_x_at) / RFU WNT11 (11732464_a_at) / Fold change /veh WNT11 (11732464_a_at) / RFU C10orf10 (11716521_a_at) / Fold change /veh C10orf10 (11716521_a_at) / RFU C5orf56 (11738089_at) / Fold change /veh C5orf56 (11738089_at) / RFU CYB561 (11721691_x_at) / Fold change /veh CYB561 (11721691_x_at) / RFU ANKRD19P (11752326_a_at) / Fold change /veh ANKRD19P (11752326_a_at) / RFU OR2T12 /// OR2T33 /// OR2T8 (11738714_s_at) / Fold change /veh OR2T12 /// OR2T33 /// OR2T8 (11738714_s_at) / RFU VCAN (11748164_a_at) / Fold change /veh VCAN (11748164_a_at) / RFU JSRP1 (11732532_at) / Fold change /veh JSRP1 (11732532_at) / RFU KRTAP10-11 (11738290_x_at) / Fold change /veh KRTAP10-11 (11738290_x_at) / RFU MYO3A (11730013_a_at) / Fold change /veh MYO3A (11730013_a_at) / RFU EBF3 (11725865_a_at) / Fold change /veh EBF3 (11725865_a_at) / RFU CAMK2N1 (11719241_x_at) / Fold change /veh CAMK2N1 (11719241_x_at) / RFU C5orf56 (11738088_a_at) / Fold change /veh C5orf56 (11738088_a_at) / RFU OLFML3 (11715873_a_at) / Fold change /veh OLFML3 (11715873_a_at) / RFU LOC100653217 /// NTM (11731650_a_at) / Fold change /veh LOC100653217 /// NTM (11731650_a_at) / RFU MAPK11 (11762145_a_at) / Fold change /veh MAPK11 (11762145_a_at) / RFU FIZ1 (11724087_x_at) / Fold change /veh FIZ1 (11724087_x_at) / RFU OASL (11726364_x_at) / Fold change /veh OASL (11726364_x_at) / RFU SOX15 (11748057_x_at) / Fold change /veh SOX15 (11748057_x_at) / RFU CD79A (11719716_a_at) / Fold change /veh CD79A (11719716_a_at) / RFU HIST1H1D (11736915_at) / Fold change /veh HIST1H1D (11736915_at) / RFU CASKIN2 (11723855_a_at) / Fold change /veh CASKIN2 (11723855_a_at) / RFU LOC730098 (11760151_x_at) / Fold change /veh LOC730098 (11760151_x_at) / RFU OR4N2 (11742367_at) / Fold change /veh OR4N2 (11742367_at) / RFU PRRT2 (11749266_a_at) / Fold change /veh PRRT2 (11749266_a_at) / RFU SNX32 (11753110_a_at) / Fold change /veh SNX32 (11753110_a_at) / RFU CDHR5 (11726645_a_at) / Fold change /veh CDHR5 (11726645_a_at) / RFU RCAN1 (11760418_a_at) / Fold change /veh RCAN1 (11760418_a_at) / RFU FAM167A (11723789_a_at) / Fold change /veh FAM167A (11723789_a_at) / RFU FAM26E (11764081_at) / Fold change /veh FAM26E (11764081_at) / RFU ISYNA1 (11749810_s_at) / Fold change /veh ISYNA1 (11749810_s_at) / RFU ACY1 (11761880_at) / Fold change /veh ACY1 (11761880_at) / RFU 11764098_at / Fold change /veh 11764098_at / RFU SAMD14 (11745864_x_at) / Fold change /veh SAMD14 (11745864_x_at) / RFU NPB (11741838_a_at) / Fold change /veh NPB (11741838_a_at) / RFU TMPRSS6 (11731388_a_at) / Fold change /veh TMPRSS6 (11731388_a_at) / RFU KRTAP10-2 (11738614_at) / Fold change /veh KRTAP10-2 (11738614_at) / RFU ARHGAP8 /// PRR5-ARHGAP8 (11727945_x_at) / Fold change /veh ARHGAP8 /// PRR5-ARHGAP8 (11727945_x_at) / RFU KRTAP5-7 /// NADSYN1 (11734609_at) / Fold change /veh KRTAP5-7 /// NADSYN1 (11734609_at) / RFU RASL12 (11751679_a_at) / Fold change /veh RASL12 (11751679_a_at) / RFU CDKN2B (11736163_a_at) / Fold change /veh CDKN2B (11736163_a_at) / RFU PRF1 (11729649_at) / Fold change /veh PRF1 (11729649_at) / RFU, ZNF638 /// ZNF638-IT1 / Fold change vs veh, ZNF638 /// ZNF638-IT1 / RFU, PANK3 / Fold change vs veh, PANK3 / RFU, SH3YL1 / Fold change vs veh, SH3YL1 / RFU, ZEB2 / Fold change vs veh, ZEB2 / RFU, NRIP1 / Fold change vs veh, NRIP1 / RFU, PTTG1IP / Fold change vs veh, PTTG1IP / RFU, CAPN2 / Fold change vs veh, CAPN2 / RFU, MED14 / Fold change vs veh, MED14 / RFU, SNORA58 / Fold change vs veh, SNORA58 / RFU, C1orf63 / Fold change vs veh, C1orf63 / RFU, LRRFIP1 / Fold change vs veh, LRRFIP1 / RFU, NDUFAF7 / Fold change vs veh, NDUFAF7 / RFU, SLC12A2 / Fold change vs veh, SLC12A2 / RFU, IBTK / Fold change vs veh, IBTK / RFU, ESF1 / Fold change vs veh, ESF1 / Fold change vs veh, TMEM50B / RFU, TAOK1 / Fold change vs veh, TAOK1 / RFU, ACBD3 / Fold change vs veh, ACBD3 / RFU, TMA16 / Fold change vs veh, TMA16 / RFU, RWDD3 / Fold change vs veh, RWDD3 / RFU, BCAT1 / Fold change vs veh, BCAT1 / RFU, EDEM3 / Fold change vs veh, EDEM3 / RFU, TMEM33 / Fold change vs veh, TMEM33 / RFU, WDR75 / Fold change vs veh, WDR75 / RFU, AHCTF1 / Fold change vs veh, AHCTF1 / RFU, TFRC / Fold change vs veh, TFRC / RFU, ZDHHC17 / Fold change vs veh, ZDHHC17 / RFU, NOM1 / Fold change vs veh, NOM1 / RFU, ARL8B / Fold change vs veh, ARL8B / RFU, ZBTB11 / Fold change vs veh, ZBTB11 / RFU, TAMM41 / Fold change vs veh, TAMM41 / RFU, KIAA1704 /// LOC100996395 / Fold change vs veh, KIAA1704 /// LOC100996395 / RFU, ING1 / Fold change vs veh, ING1 / RFU, TRMT61B / Fold change vs veh, TRMT61B / RFU, FUBP3 / Fold change vs veh, FUBP3 / RFU, TP53 / Fold change vs veh, TP53 / RFU, TNKS2 / Fold change vs veh, TNKS2 / RFU, ZFP14 / Fold change vs veh, ZFP14 / RFU, ACTR2 / Fold change vs veh, ACTR2 / RFU, PPP3R1 / Fold change vs veh, PPP3R1 / RFU, PIK3R1 / Fold change vs veh, PIK3R1 / RFU, HNRNPA1 / Fold change vs veh, HNRNPA1 / RFU, RNF170 / Fold change vs veh, RNF170 / RFU, ZNF28 / Fold change vs veh, ZNF28 / RFU, RNGTT / Fold change vs veh, RNGTT / RFU, OGT / Fold change vs veh, OGT / RFU, BRD1 / Fold change vs veh, BRD1 / RFU, MARS / Fold change vs veh, MARS / RFU, ZNF655 / Fold change vs veh, ZNF655 / RFU, FAHD1 / Fold change vs veh, FAHD1 / RFU, BDP1 / Fold change vs veh, BDP1 / RFU, LRRCC1 / Fold change vs veh, LRRCC1 / RFU, ARID1A / Fold change vs veh, ARID1A / RFU, ZNF146 / Fold change vs veh, ZNF146 / RFU, ZNF330 / Fold change vs veh, ZNF330 / RFU, GPN3 / Fold change vs veh, GPN3 / RFU, C9orf123 / Fold change vs veh, C9orf123 / RFU, N4BP2L2 / Fold change vs veh, N4BP2L2 / RFU, ARFIP1 / Fold change vs veh, ARFIP1 / RFU, FAM179B / Fold change vs veh, FAM179B / RFU, BCL10 / Fold change vs veh, BCL10 / RFU, UHRF1BP1L / Fold change vs veh, UHRF1BP1L / RFU, BET1 / Fold change vs veh, BET1 / RFU, CNOT2 / Fold change vs veh, CNOT2 / RFU, ZNF268 / Fold change vs veh, ZNF268 / Fold change vs veh, ZNF507 / RFU, DGCR2 / Fold change vs veh, DGCR2 / RFU, WDSUB1 / Fold change vs veh, WDSUB1 / Fold change vs veh, HSP90B1 /// MIR3652 / RFU, ADSS / Fold change vs veh, ADSS / RFU, GK / Fold change vs veh, GK / RFU, ZNF148 / Fold change vs veh, ZNF148 / RFU, TAF9 / Fold change vs veh, TAF9 / RFU, SLC1A5 / Fold change vs veh, SLC1A5 / RFU, SLMO2 / Fold change vs veh, SLMO2 / RFU, ABCC4 / Fold change vs veh, ABCC4 / RFU, LOC101060439 /// RAP1B / Fold change vs veh, LOC101060439 /// RAP1B / RFU, RFX7 / Fold change vs veh, RFX7 / RFU, GTPBP10 / Fold change vs veh, GTPBP10 / RFU, CNEP1R1 / Fold change vs veh, CNEP1R1 / RFU, BIVM-ERCC5 /// ERCC5 / Fold change vs veh, BIVM-ERCC5 /// ERCC5 / RFU, ILF3 / Fold change vs veh, ILF3 / RFU 11762660_at / Fold change /veh 11762660_at / RFU VCAN (11757783_s_at) / Fold change /veh VCAN (11757783_s_at) / RFU DDX43 (11728927_at) / Fold change /veh DDX43 (11728927_at) / RFU KRT8 (11758188_x_at) / Fold change /veh KRT8 (11758188_x_at) / RFU NKD1 (11759106_at) / Fold change /veh NKD1 (11759106_at) / RFU SRD5A1 (11742802_a_at) / Fold change /veh SRD5A1 (11742802_a_at) / RFU TPSAB1 /// TPSB2 (11721975_s_at) / Fold change /veh TPSAB1 /// TPSB2 (11721975_s_at) / RFU GSTM3 (11746129_a_at) / Fold change /veh GSTM3 (11746129_a_at) / RFU IL23R (11737362_x_at) / Fold change /veh IL23R (11737362_x_at) / RFU TMEM51 (11727254_a_at) / Fold change /veh TMEM51 (11727254_a_at) / RFU PIWIL2 (11732686_x_at) / Fold change /veh PIWIL2 (11732686_x_at) / RFU ORM1 (11744905_x_at) / Fold change /veh ORM1 (11744905_x_at) / RFU CCDC152 (11743942_at) / Fold change /veh CCDC152 (11743942_at) / RFU ECM1 (11717891_a_at) / Fold change /veh ECM1 (11717891_a_at) / RFU IL23R (11748794_a_at) / Fold change /veh IL23R (11748794_a_at) / RFU TNFAIP8L3 (11732012_x_at) / Fold change /veh TNFAIP8L3 (11732012_x_at) / RFU MBOAT4 (11741988_at) / Fold change /veh MBOAT4 (11741988_at) / RFU 11764193_at / Fold change /veh 11764193_at / RFU TMEM53 (11763286_at) / Fold change /veh TMEM53 (11763286_at) / RFU MAGEB2 (11727129_at) / Fold change /veh MAGEB2 (11727129_at) / RFU TMEM200A (11744735_a_at) / Fold change /veh TMEM200A (11744735_a_at) / RFU CCDC152 (11751479_a_at) / Fold change /veh CCDC152 (11751479_a_at) / RFU FAM211A (11726209_a_at) / Fold change /veh FAM211A (11726209_a_at) / RFU RGS16 (11746705_a_at) / Fold change /veh RGS16 (11746705_a_at) / RFU VCAN (11755009_s_at) / Fold change /veh VCAN (11755009_s_at) / RFU RHOB (11743442_s_at) / Fold change /veh RHOB (11743442_s_at) / RFU RGS16 (11720943_a_at) / Fold change /veh RGS16 (11720943_a_at) / RFU RGS16 (11720944_at) / Fold change /veh RGS16 (11720944_at) / RFU, VPS4B / Fold change vs veh, VPS4B / RFU, CREB1 / Fold change vs veh, CREB1 / RFU, DNAJC13 / Fold change vs veh, DNAJC13 / RFU, GNAQ / Fold change vs veh, GNAQ / RFU, CDK5R1 / Fold change vs veh, CDK5R1 / RFU, ZRANB3 / Fold change vs veh, ZRANB3 / RFU, CUL4A / Fold change vs veh, CUL4A / RFU, CCNY / Fold change vs veh, CCNY / RFU, UFL1 / Fold change vs veh, UFL1 / RFU, COG3 / Fold change vs veh, COG3 / RFU, DIAPH2 / Fold change vs veh, DIAPH2 / RFU, SKA2 / Fold change vs veh, SKA2 / RFU, AFF3 / Fold change vs veh, AFF3 / RFU, LMF1 / Fold change vs veh, LMF1 / RFU, IPO11 / Fold change vs veh, IPO11 / RFU, DFFB / Fold change vs veh, DFFB / RFU, FOXP1 / Fold change vs veh, FOXP1 / RFU, CARD8 / Fold change vs veh, CARD8 / RFU, STRN3 / Fold change vs veh, STRN3 / RFU, ADK / Fold change vs veh, ADK / RFU, RASSF2 / Fold change vs veh, RASSF2 / RFU, WIPF1 / Fold change vs veh, WIPF1 / RFU, LARP1B / Fold change vs veh, LARP1B / RFU, RASA1 / Fold change vs veh, RASA1 / RFU, RB1 / Fold change vs veh, RB1 / RFU, PPFIA1 / Fold change vs veh, PPFIA1 / RFU, MAT2A / Fold change vs veh, MAT2A / RFU, CCT5 / Fold change vs veh, CCT5 / RFU, WDR92 / Fold change vs veh, WDR92 / RFU, CUX1 / Fold change vs veh, CUX1 / RFU, TTC7A / Fold change vs veh, TTC7A / RFU, TMEM135 / Fold change vs veh, TMEM135 / RFU, DEPTOR / Fold change vs veh, DEPTOR / RFU, CPM / Fold change vs veh, CPM / RFU, DNAJB6 / Fold change vs veh, DNAJB6 / RFU, CACNA2D3 / Fold change vs veh, CACNA2D3 / RFU, DTX4 / Fold change vs veh, DTX4 / RFU, TFCP2 / Fold change vs veh, TFCP2 / RFU, GMCL1 /// GMCL1P1 / Fold change vs veh, GMCL1 /// GMCL1P1 / RFU, AEBP2 / Fold change vs veh, AEBP2 / RFU, SNHG1 /// SNORD22 /// SNORD25 /// SNORD26 /// SNORD27 /// SNORD28 /// SNORD29 /// SNORD31 / Fold change vs veh, SNHG1 /// SNORD22 /// SNORD25 /// SNORD26 /// SNORD27 /// SNORD28 /// SNORD29 /// SNORD31 / Fold change (Aza/veh), C12orf56 (ProbeSet 11735607_a_at) / Fold change (ACY-1035/veh), C12orf56 (ProbeSet 11735607_a_at) / Fold change (Aza/veh), FGFR1OP (ProbeSet 11751329_s_at) / Fold change (ACY-1035/veh), FGFR1OP (ProbeSet 11751329_s_at) / Fold change (Aza/veh), VPS36 (ProbeSet 11739960_a_at) / Fold change (ACY-1035/veh), VPS36 (ProbeSet 11739960_a_at) / RFU SYPL1 (11715823_x_at) / Fold change /veh SYPL1 (11715823_x_at) / RFU IGFBP7 (11715501_s_at) / Fold change /veh IGFBP7 (11715501_s_at) / RFU REEP3 (11722064_at) / Fold change /veh REEP3 (11722064_at) / RFU IGLL1 (11728026_x_at) / Fold change /veh IGLL1 (11728026_x_at): dose or concentration left out as unconfirmed
Details: MV-4-11 cells, 48 hours

## Nc1ccc(-c2cccs2)cc1NC(=O)c1ccc2c(c1)cc(C1CC1)n2CCN1CCOCC1 [ACY-1035]
  Fold change /veh TMEM51 (11727254_a_at): 0.98
